Assays:
[1] = target: T1, SMARCA4-HiBiT HeLa cells (protein which is expressed from the SMARCA4 gene) (Homo sapiens, UniProt P51532); assay: SMARCA4 degradation assay (HiBiT-fusion HeLa cell line, 24 h, luminescence); assay type: cell-based
T1 construct: protein which is expressed from the SMARCA2 and SMARCA4 genes; host or cells: HeLa (SMARCA4-HiBiT engineered line)
Method in brief: (§1)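 SMARCA2- or SMARCA4-HiBiT HeLa cells seeded overnight at 37° C, then given compound as a 10-point dilution (typically 10 μM to 300 pM) for 24 h at 37° C. Protein level read by HiBiT lytic detection luminescence; DC50 from dose-response curves; degradation also scored at 1 μM.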

[2] = target: T2, SMARCA2-HiBiT HeLa cells (protein which is expressed from the SMARCA2 gene) (Homo sapiens, UniProt P51531); assay: SMARCA2 degradation assay (HiBiT-fusion HeLa cell line, 24 h, luminescence); assay type: cell-based
T2 construct: protein which is expressed from the SMARCA2 and SMARCA4 genes; host or cells: HeLa (SMARCA2-HiBiT engineered line)
Method in brief: as §1

T2 sequence (P51531 whole entry, the tested form may be a part): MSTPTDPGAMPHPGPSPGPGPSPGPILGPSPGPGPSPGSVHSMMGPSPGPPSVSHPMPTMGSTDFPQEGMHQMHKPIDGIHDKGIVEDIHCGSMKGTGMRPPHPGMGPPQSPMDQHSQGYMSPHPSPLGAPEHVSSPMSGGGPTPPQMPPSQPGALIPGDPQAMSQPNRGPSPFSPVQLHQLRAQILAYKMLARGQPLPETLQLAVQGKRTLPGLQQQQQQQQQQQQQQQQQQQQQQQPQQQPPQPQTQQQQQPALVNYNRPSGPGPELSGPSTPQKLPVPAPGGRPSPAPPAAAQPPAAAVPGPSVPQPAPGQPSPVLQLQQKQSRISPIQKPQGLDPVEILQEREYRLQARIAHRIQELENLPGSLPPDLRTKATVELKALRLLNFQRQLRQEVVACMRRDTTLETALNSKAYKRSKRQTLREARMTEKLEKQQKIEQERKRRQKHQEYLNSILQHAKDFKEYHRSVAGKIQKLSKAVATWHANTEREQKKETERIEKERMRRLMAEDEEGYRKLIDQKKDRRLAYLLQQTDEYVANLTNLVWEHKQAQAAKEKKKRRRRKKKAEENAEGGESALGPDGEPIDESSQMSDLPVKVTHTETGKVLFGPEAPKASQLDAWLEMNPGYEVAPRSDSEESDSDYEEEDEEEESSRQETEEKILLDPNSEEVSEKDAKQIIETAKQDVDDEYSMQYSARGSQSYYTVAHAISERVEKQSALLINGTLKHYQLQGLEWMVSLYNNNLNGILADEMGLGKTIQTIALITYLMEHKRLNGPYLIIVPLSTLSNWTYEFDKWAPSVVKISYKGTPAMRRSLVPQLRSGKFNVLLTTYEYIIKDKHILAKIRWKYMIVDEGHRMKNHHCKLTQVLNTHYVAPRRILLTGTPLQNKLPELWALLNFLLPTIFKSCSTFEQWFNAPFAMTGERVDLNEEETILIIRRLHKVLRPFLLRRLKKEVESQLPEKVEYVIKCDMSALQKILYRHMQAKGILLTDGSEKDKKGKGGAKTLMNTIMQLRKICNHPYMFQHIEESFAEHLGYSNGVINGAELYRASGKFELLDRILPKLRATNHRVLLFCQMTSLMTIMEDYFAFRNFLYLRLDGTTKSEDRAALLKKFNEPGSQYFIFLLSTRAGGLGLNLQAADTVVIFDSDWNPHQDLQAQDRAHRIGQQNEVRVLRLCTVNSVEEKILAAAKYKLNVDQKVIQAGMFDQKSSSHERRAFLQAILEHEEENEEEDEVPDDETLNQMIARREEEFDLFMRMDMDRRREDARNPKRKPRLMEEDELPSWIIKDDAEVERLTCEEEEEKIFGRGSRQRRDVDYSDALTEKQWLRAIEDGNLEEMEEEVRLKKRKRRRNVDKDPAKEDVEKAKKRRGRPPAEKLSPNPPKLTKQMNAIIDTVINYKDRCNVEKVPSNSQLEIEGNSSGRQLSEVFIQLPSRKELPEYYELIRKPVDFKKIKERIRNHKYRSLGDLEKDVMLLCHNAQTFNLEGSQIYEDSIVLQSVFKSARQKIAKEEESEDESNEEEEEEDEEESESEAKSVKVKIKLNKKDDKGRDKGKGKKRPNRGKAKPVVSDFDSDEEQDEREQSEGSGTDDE
T1 sequence (P51532 whole entry, the tested form may be a part): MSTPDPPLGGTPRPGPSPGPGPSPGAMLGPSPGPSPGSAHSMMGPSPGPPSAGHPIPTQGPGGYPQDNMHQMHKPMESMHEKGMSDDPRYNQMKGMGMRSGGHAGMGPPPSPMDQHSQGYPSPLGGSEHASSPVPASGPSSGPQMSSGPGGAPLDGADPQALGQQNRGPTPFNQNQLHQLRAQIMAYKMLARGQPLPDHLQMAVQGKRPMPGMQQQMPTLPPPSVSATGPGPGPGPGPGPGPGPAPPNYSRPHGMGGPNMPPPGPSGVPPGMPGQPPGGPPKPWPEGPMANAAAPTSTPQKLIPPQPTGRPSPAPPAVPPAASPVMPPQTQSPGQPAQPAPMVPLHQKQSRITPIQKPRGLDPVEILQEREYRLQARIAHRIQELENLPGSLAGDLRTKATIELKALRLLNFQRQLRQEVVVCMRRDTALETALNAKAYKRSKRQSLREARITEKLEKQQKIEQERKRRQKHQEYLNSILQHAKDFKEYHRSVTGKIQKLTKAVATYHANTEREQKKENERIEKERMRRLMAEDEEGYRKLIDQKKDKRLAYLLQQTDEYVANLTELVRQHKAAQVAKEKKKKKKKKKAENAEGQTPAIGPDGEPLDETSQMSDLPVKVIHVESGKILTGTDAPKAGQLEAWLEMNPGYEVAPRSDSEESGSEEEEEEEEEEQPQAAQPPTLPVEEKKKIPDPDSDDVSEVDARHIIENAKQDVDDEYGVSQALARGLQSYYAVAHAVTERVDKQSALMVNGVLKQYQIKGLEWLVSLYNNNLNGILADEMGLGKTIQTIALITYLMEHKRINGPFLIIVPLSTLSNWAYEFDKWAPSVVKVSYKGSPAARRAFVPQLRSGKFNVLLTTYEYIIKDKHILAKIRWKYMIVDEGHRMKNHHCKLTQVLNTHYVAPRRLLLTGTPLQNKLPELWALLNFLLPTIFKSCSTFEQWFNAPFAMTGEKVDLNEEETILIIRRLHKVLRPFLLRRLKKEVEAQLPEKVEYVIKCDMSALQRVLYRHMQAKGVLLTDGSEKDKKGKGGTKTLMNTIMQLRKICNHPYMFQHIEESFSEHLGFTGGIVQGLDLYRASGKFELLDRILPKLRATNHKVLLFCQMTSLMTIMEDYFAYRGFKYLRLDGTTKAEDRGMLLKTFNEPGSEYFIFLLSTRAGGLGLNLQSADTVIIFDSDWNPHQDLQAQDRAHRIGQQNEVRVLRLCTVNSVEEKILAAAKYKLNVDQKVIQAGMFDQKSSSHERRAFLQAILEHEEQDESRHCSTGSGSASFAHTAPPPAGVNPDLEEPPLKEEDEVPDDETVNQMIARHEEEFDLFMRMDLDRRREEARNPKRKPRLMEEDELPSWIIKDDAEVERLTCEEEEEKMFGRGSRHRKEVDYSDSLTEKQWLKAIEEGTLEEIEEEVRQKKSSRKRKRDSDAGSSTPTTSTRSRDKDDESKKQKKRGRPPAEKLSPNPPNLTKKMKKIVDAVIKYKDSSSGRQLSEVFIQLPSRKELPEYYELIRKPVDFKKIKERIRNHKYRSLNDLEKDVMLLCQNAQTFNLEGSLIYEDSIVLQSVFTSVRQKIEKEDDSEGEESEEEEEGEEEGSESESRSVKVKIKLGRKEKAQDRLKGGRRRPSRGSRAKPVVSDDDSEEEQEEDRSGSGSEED

| SMILES | DC50 [1] [nM] | inhibition at 1 µM [1] [%] | DC50 [2] [nM] | SMARCA2 % Degradation @ 1 μM [2] |
| --- | --- | --- | --- | --- |
| C[C@@H]1CCN(c2cc(-c3ccccc3O)nnc2N)CCN1c1ccnc(C#CC2CN(CC(F)F)C2)n1 [Compound P-174, o-{5-[(R)-4-(2-{2-[1-(2,2-difluoroethyl)-3-azetidinyl]ethynyl}-4-pyrimidinyl)-5-methyl-1,4-diazepan-1-y1]-6-amino-3-pyridazinyl}phenol] | 50 to 500 | 30 to 70 | 50 to 500 | +++ (+++=>70%) |
| C[C@@H]1CCC(=O)N1CC#Cc1ncc(F)c(N2CCN(c3cc(-c4ccccc4O)nnc3N)CC[C@H]2C)n1 [Compound P-175, (R)-1-[3-(4-{(R)-4-[3-amino-6-(o-hydroxyphenyl)-4-pyridazinyl]-7-methyl-1,4-diazepan-1-yl}-5-fluoro-2-pyrimidinyl)-2-propynyl]-5-methyl-2-pyrrolidinone] | 50 to 500 | < 30 | 50 to 500 | ++ (++=30-70%) |
| C[C@@H]1CCN(c2cc(-c3ccccc3O)nnc2N)CCN1c1nc(C#CCN2C(=O)CC[C@@H]2C)ncc1F [Compound P-176, (S)-1-[3-(4-{(R)-4-[3-amino-6-(o-hydroxyphenyl)-4-pyridazinyl]-7-methyl-1,4-diazepan-1-yl}-5-fluoro-2-pyrimidinyl)-2-propynyl]-5-methyl-2-pyrrolidinone] | 50 to 500 | 30 to 70 | 50 to 500 | ++ (++=30-70%) |
| Cc1cc(C)n(CC#Cc2nccc(N3CCN(c4cc(-c5ccccc5O)nnc4N)CC[C@H]3C)n2)n1 [Compound P-177, o-{5-[(R)-4-{2-[3-(3,5-dimethyl-1-pyrazolyl)-1-propynyl]-4-pyrimidinyl}-5-methyl-1,4-diazepan-1-yl]-6-amino-3-pyridazinyl}phenol] | 50 to 500 | < 30 | 50 to 500 | ++ (++=30-70%) |
| C[C@@H]1CCN(c2cc(-c3ccccc3O)nnc2N)CCN1c1ccnc(C#CCN2CC3CCC2CO3)n1 (stereo partly drawn) [Compound P-178, o-{5-[(R)-5-methyl-4-(2-{3-(2-oxa-5-azabicyclo[2.2.2]oct-5-yl)-1-propynyl}-4-pyrimidinyl)-1,4-diazepan-1-yl]-6-amino-3-pyridazinyl}phenol] | 50 to 500 | 30 to 70 | 50 to 500 | +++ (+++=>70%) |
| C[C@@H]1CCN(c2cc(-c3ccccc3O)nnc2N)CCN1c1ccnc(C#CCN2CC3CC(C2)O3)n1 [Compound P-179, o-{5-[(R)-5-methyl-4-(2-{3-(6-oxa-3-azabicyclo[3.1.1]hept-3-yl)-1-propynyl}-4-pyrimidinyl)-1,4-diazepan-1-yl]-6-amino-3-pyridazinyl}phenol] | 50 to 500 | 30 to 70 | 50 to 500 | +++ (+++=>70%) |
| Nc1nnc(-c2ccccc2O)cc1N1C[C@H]2CN(c3ccnc(C#CCN4CC(F)(F)C4)n3)C[C@H]2C1 [Compound P-180] | < 50 | 30 to 70 | < 50 | ++ (++=30-70%) |
| CN(C)CC#Cc1nccc(N2C[C@@H]3CN(c4cc(-c5ccccc5O)nnc4N)C[C@@H]3C2)n1 [Compound P-181, o-{5-[(1R,5S)-7-{2-[3-(dimethylamino)-1-propynyl]-4-pyrimidinyl}-3,7-diazabicyclo[3.3.0]oct-3-yl]-6-amino-3-pyridazinyl} phenol] | < 50 | 30 to 70 | 50 to 500 | ++ (++=30-70%) |
| Nc1nnc(-c2ccccc2O)cc1N1C2CCC1CN(c1ccnc(C#CCN3CC4CC3C4)n1)C2 [Compound P-182, o-{6-amino-5-[3-(2-{3-(2-azabicyclo[2.1.1]hex-2-yl)-1-propynyl}-4-pyrimidinyl)-3,8-diazabicyclo[3.2.1]oct-8-yl]-3-pyridazinyl}phenol] | 50 to 500 | 30 to 70 | 50 to 500 | ++ (++=30-70%) |
| C[C@@H]1CCN(c2cc(-c3ccccc3O)nnc2N)CCN1c1ccnc(C#CCN2CC3CCC(C2)O3)n1 [Compound P-183, o-{5-[(R)-5-methyl-4-(2-{3-(8-oxa-3-azabicyclo[3.2.1]oct-3-yl)-1-propynyl}-4-pyrimidinyl)-1,4-diazepan-1-yl]-6-amino-3-pyridazinyl}phenol] | 50 to 500 | 30 to 70 | 50 to 500 | +++ (+++=>70%) |
| C[C@@H]1CCN(c2cc(-c3ccccc3O)nnc2N)CCN1c1ccnc(C#CCN2C3COCC2C3)n1 [Compound P-184, o-{5-[(R)-5-methyl-4-(2-{3-(3-oxa-6-azabicyclo[3.1.1]hept-6-yl)-1-propynyl}-4-pyrimidinyl)-1,4-diazepan-1-yl]-6-amino-3-pyridazinyl}phenol] | < 50 | 30 to 70 | < 50 | +++ (+++=>70%) |
| Cc1nc(C)n(CC#Cc2nccc(N3CCN(c4cc(-c5ccccc5O)nnc4N)CC[C@H]3C)n2)c1C [Compound P-185, o-{5-[(R)-5-methyl-4-{2-[3-(2,4,5-trimethyl-1-imidazolyl)-1-propynyl]-4-pyrimidinyl}-1,4-diazepan-1-y1]-6-amino-3-pyridaziny1} phenol] | 50 to 500 | > 70 | 50 to 500 | +++ (+++=>70%) |
| Cc1nccn1CC#Cc1nccc(N2CCN(c3cc(-c4ccccc4O)nnc3N)CC[C@H]2C)n1 [Compound P-186, o-{5-[(R)-5-methyl-4-{2-[3-(2-methyl-1-imidazolyl)-1-propynyl]-4-pyrimidinyl}-1,4-diazepan-1-yl]-6-amino-3-pyridazinyl}phenol] | 50 to 500 | 30 to 70 | 50 to 500 | +++ (+++=>70%) |
| Nc1nnc(-c2ccccc2O)cc1N1CCC2(CCN(c3ccnc(C#CCN4CC5CC4C5)n3)CC2)C1 [Compound P-187, o-{6-amino-5-[8-(2-{3-(2-azabicyclo[2.1.1]hex-2-yl)-1-propynyl}-4-pyrimidinyl)-2,8-diaza-2-spiro[4.5]decyl]-3-pyridazinyl}phenol] | 50 to 500 | 30 to 70 | 50 to 500 | ++ (++=30-70%) |
| Nc1nnc(-c2ccccc2O)cc1N1CC2CCC(C1)N2c1ccnc(C#CCN2CC3CC2C3)n1 [Compound P-188, o-{6-amino-5-[8-(2-{3-(2-azabicyclo[2.1.1]hex-2-yl)-1-propynyl}-4-pyrimidinyl)-3,8-diazabicyclo[3.2.1]oct-3-yl]-3-pyridazinyl}phenol] | < 50 | 30 to 70 | < 50 | +++ (+++=>70%) |
| C[C@@H]1CCN(c2cc(-c3ccccc3O)nnc2N)CCN1c1nc(C#CCN2CC3CC2C3)ncc1F [Compound P-189, o-{5-[(R)-4-(2-{3-(2-azabicyclo[2.1.1]hex-2-yl)-1-propynyl}-5-fluoro-4-pyrimidinyl)-5-methyl-1,4-diazepan-1-yl]-6-amino-3-pyridazinyl}phenol] | < 50 | 30 to 70 | < 50 | ++ (++=30-70%) |
| C[C@@H]1CCN(c2cc(-c3ccccc3O)nnc2N)CCN1c1ccnc(C#CCN2CC3CC2(C)C3)n1 [Compound P-190, o-{5-[(R)-5-methyl-4-(2-{3-(1-methyl-2-azabicyclo[2.1.1]hex-2-yl)-1-propynyl}-4-pyrimidinyl)-1,4-diazepan-1-yl]-6-amino-3-pyridazinyl}phenol] | 50 to 500 | 30 to 70 | 50 to 500 | +++ (+++=>70%) |
| C[C@@H]1CCN(c2cc(-c3ccccc3O)nnc2N)CCN1c1ccnc(C#CCn2cccc2)n1 [Compound P-191, o-{5-[(R)-5-methyl-4-{2-[3-(1-pyrrolyl)-1-propynyl]-4-pyrimidinyl}-1,4-diazepan-1-yl]-6-amino-3-pyridaziny1}phenol] | 50 to 500 | 30 to 70 | 50 to 500 | ++ (++=30-70%) |
| C[C@@H]1CCN(c2cc(-c3ccccc3O)nnc2N)CCN1c1ccnc(C#CC2CN(C)C2)n1 [Compound P-192, o-{5-[(R)-5-methyl-4-{2-[2-(1-methyl-3-azetidinyl)ethynyl]-4-pyrimidinyl}-1,4-diazepan-1-y1]-6-amino-3-pyridaziny1} phenol] | 50 to 500 | 30 to 70 | < 50 | +++ (+++=>70%) |
| CC1(F)CCN(CC#Cc2nccc(N3CC4CCC(C3)N4c3cc(-c4ccccc4O)nnc3N)n2)C1 (stereo not drawn) [Compound P-193, o-[6-amino-5-(3-{2-[3-(3-fluoro-3-methyl-1-pyrrolidinyl)-1-propynyl]-4-pyrimidinyl}-3,8-diazabicyclo[3.2.1]oct-8-yl)-3-pyridazinyl]phenol] | 50 to 500 | < 30 | 50 to 500 | ++ (++=30-70%) |
| CC1(F)CCN(CC#Cc2nccc(N3C4CCC3CN(c3cc(-c5ccccc5O)nnc3N)C4)n2)C1 (stereo not drawn) [Compound P-194, o-[6-amino-5-(8-{2-[3-(3-fluoro-3-methyl-1-pyrrolidinyl)-1-propynyl]-4-pyrimidinyl}-3,8-diazabicyclo[3.2.1]oct-3-yl)-3-pyridazinyl]phenol] | < 50 | 30 to 70 | < 50 | ++ (++=30-70%) |

Reference: patent US20260265238A1, “COMPOUNDS AND PHARMACEUTICAL COMPOSITIONS THAT DEGRADE SWI/SNF-RELATED MATRIX-ASSOCIATED ACTIN-DEPENDENT REGULATOR OF CHROMATIN SUBFAMILY A” (Plexium, Inc., priority 2023, published 2026)
